# Data published in US20070197619A1, “Ion Channel Modulators” (priority 2004, published 2007).
# pIC50: −log10 of the molar value.
# Tested on: calcium channel (e.g., L-type, N-type, etc.)
# Assay: HEK assay, whole-cell patch clamp of transiently transfected HEK-293T/17 cells
# Assay type: cell-based
# Conditions: whole-cell voltage clamp, holding potential −100 mV
# Procedure: HEK-293T/17 cells are transiently transfected in a similar manner as described in FuGENE 6 Package Insert Version 7, April 2002, Roche Applied Science, Indianapolis, Ind. The cells are plated at 2.5×10^5 cells in 2 mL in a 6-well plate in incubator for one night and achieve a 30˜40% confluence. In a small sterile tube, add sufficient serum-free medium as diluent for FuGENE Transfection Reagent (Roche Applied Science, Indianapolis, Ind.), to a total volume of 100 μL. Add 3 μL of FuGENE 6 Reagent directly into this medium. The mixture is tapped gently to mix. 2 μg of DNA solution (0.8-2.0 μg/μL) is added to the prediluted FuGENE 6 Reagent from above. The DNA/Fugene 6 mixture is gently pipeted to mix the contents and incubated for about 15 minutes at room temperature. The complex mixture is then added to the HEK-293T/17 cells, distributing it around the well, and swirled to ensure even dispersal. The cells are returned to the incubator for 24 hrs. The transfected cells are then replated at density 2.5×10^5 in a 35 mm dish with 5 glass coverslips and grow in low serum (1%) media for 24 hrs. Coverslips with isolated cells are then transferred into chamber and calcium channel (e.g., L-type, N-type, etc.) current or other currents for counter screening are recorded from the transiently transfected HEK-293T/17 cells. […]
row,pIC50,Structure (SMILES)
1,5.57,CN(Cc1nc(CN2CCCC2)cn1-c1ccc(Cl)cc1)c1ccc(F)cc1 [Compound 6]
2,6.87,CN(Cc1nc(CNc2ccc(F)cc2)cn1-c1ccc(Cl)cc1)c1ccc(F)cc1 [Compound 5]
